Assay results taken from patent US8551951B2, “Pharmaceutical preparations and methods for inhibiting tumors” (Aenorasis SA Pharmaceuticals and Medical Devices, priority 2000, dated 2013).
Peptide text beside a SMILES is read from it.

Tests used:
[1] = test system: human prostate cancer cells PC-3; experiment: MTS assay, growth inhibitory effect on PC-3 cells; type: cell-based; conditions: for growth inhibition of PC-3 cells (FIG. 10): 72 hours
Description: Cell proliferation was monitored on PC-3 cells using the MTS/PMS (phenazine methosulfate) kit (Promega), which primarily measures mitochondrial activity of live cells. The basic principle of this method involves the fact that the mitochondrial enzymes of the live cells metabolize the MTS/PMS dyes forming a brown colored precipitate which can be measured as optical density (OD) by absorption at 490 nm in a spectrophotometer. Therefore, the OD values are proportional to the number of living cells. In addition, monitoring of cell morphology was also performed. Cell morphology would be indicative of their health status. For example, viable cells would appear adherent and spread out whereas dead cells would be in suspension in the media and would appear granular and round.
PC-3 cells (ATCC, Lot AT06) used in these experiments were at a passage number lower or equal to 70 (n≧70). Cells were seeded in Costar 96 well cell culture flat bottom plates in RPMI supplemented media containing 50 μg/ml of bovine serum albumin (BSA) and 0.1 μM FeSO4. Peptide was diluted in the same media. Cells were continuously exposed to the polypeptides of the present invention for 72 hours without changing media. Native PSP94 or rHuPSP94 concentrated two fold were directly added to wells and diluted to 1× in order to minimize cell manipulation and avoid detachment.
Native PSP94, rHuPSP94, polypeptide 22-36 and PB111 polypeptide (scrambled polypeptide) were also included in this experiment as controls. Cell proliferation assay was performed on either PC-3 cells or normal fibroblasts (used here as control) using the MTS/PMS kit (Promega). Four thousand cells (FIGS. 9 and 10) or three thousand (FIG. 11) cells were seeded in Costar 96 well cell culture flat bottom plates in RPMI supplemented media containing 50 μg/ml of bovine serum albumin (BSA) and 0.1 μM FeSO4. In addition, monitoring of cell morphology was also performed.
This assay measures the mitochondrial activity of the live cells. The basic principle of this method involves the fact that the mitochondrial enzymes of the live cells metabolize the MTS/PMS dyes forming a brown colored precipitate which can be measured as optical density (OD) by absorption at 490 nm in a spectrophotometer. Therefore, the OD values are proportional to the number of living cells.
In addition, a visual observation of the cells was also done to check the cell morphology, which could also be indicative of cell growth. The following conditions for MTS assay were used: PC-3 (ATCC, Lot AT06), passage number n≧70, cell line adapted to grow in serum-free OPTI-MEM and in RPMI supplemented with BSA (50 μg/ml) and Ferrous Sulfate (0.1 μM), continuous exposure for up to 72 hours without changing media (i.e., adding PCK3145 at 2× concentration directly to wells and diluting it 1:2 to 1× to minimize cell manipulation and avoid detachment).

[2] = test system: human PC-3 tumor; experiment: Studies PC3-6 and PC3-12, human PC-3 prostate cancer nude mouse xenograft model; type: in vivo, nude mice
Description: Studies PC3-6 and PC3-12 (FIGS. 26-27) are consecutive group experiments designed to characterize the in vivo activity of PCK3145 in the human PC-3 prostate cancer nude mouse xenograft model and to explore relationships between dose, route and schedule of administration and the efficacy parameters of tumor growth (volume).
PC-3 cells harvested in mid-log phase were inoculated at 5×10^6 cells per mice via the subcutaneous route in the mice's back area. Tumors grown from this inoculum were excised at approximately day 32 to 35 post-tumor implantation (p.t.i) when tumor volume reached 200-300 mm^3 (i.e., cu mm). The necrotic tissue was removed and the viable tumor mass cut into small pieces (approximately 1 to 3 mm^3) were implanted SC in the flank region at two opposite sites of the mouse. Treatment with various concentrations of PCK3145 was initiated at day 3 post-tumor implantation (p.t.i) and was continued daily for 21 days. Subcutaneous injections were done below tumor growth sites. Intra-peritoneal injections were performed in the abdominal region. Intra-venous injections were performed via the lateral tail vein. The experiment was terminated 24 hours after the last treatment. Tumor measurements were taken at Days 11, 14, 16, 18, 20, 22 and 24 post-tumor implantation (p.t.i). Tumor volumes were calculated according to formula (a×b^2×0.5), where a—is the length of the long diameter, and b—is the width of the perpendicular small diameter.
Study No: PC3-6 illustrates the efficacy of PCK3145, injected subcutaneously, in tumor growth retardation in Nude mice, which have received PC-3 implants. Mice were separated in different group each receiving various amounts of PCK3145 (SEQ ID NO: 5) or control reagents. The different groups used in these experiments are illustrated in table 6 below. Each group contained 10 mice. Doxorubicin was administered as single bolus intra-venous injection on days 3 and 11 post-tumor implantation (p.t.i).
Study No: PC3-12 illustrates the efficacy of PCK3145 in tumor growth retardation in Nude mice, which have received PC-3 implants. Mice were separated in different group each receiving various amounts of PCK3145 (SEQ ID NO: 5) or control reagents. PCK3145 was injected either through intra-venous or intra-peritoneal route. The different groups used in these experiments are illustrated in table 7 below. Each group contained 9 mice.

Row | Compound | inhibitory effect on the growth of PC-3 cells ([1]; 0 to 400 μg/ml, tests repeated 5 times) | growth inhibition of PC-3 cells (FIG. 10) [1] | anti-tumor effect on subcutaneous injection at a site distant from tumor (scruff of the neck) ([2]; 10 μg/kg/day and 100 μg/kg/day) | tumor growth (volume), study PC3-6 ([2]; 10 μg/kg/day s.c. below tumor sites, daily for 21 days, p=0.001 to 0.002 vs PBS) | tumor growth (volume), study PC3-12 ([2]; 100 μg/kg/day intra-venous, days 13, 17 and 20) | tumor growth (volume), study PC3-12 ([2]; 10, 500 and 1000 μg/kg/day intra-venous) | tumor growth (volume), study PC3-12 ([2]; 500 and 1000 μg/kg/day intra-venous) | anti-tumor effect in the PC-3 nude mouse xenograft model ([2]; mouse, in vivo)
1 | C[C@@H](O)[C@H](NC(=O)[C@H](CCC(=O)O)NC(=O)[C@H](Cc1ccc(O)cc1)NC(=O)[C@H](CS)NC(=O)[C@@H](NC(=O)[C@H](CS)NC(=O)[C@@H](NC(=O)[C@H](CCC(=O)O)NC(=O)[C@H](CS)NC(=O)[C@H](CC(N)=O)NC(=O)[C@H](CC(=O)O)NC(=O)[C@@H](NC(=O)[C@H](CCC(N)=O)NC(=O)[C@H](Cc1c[nH]c2ccccc12)NC(=O)[C@@H](N)CCC(=O)O)[C@@H](C)O)[C@@H](C)O)[C@@H](C)O)C(=O)O [PCK3145, EWQTDNCETCTCYET] (H-EWQTDNCETCTCYET-OH; N-terminus and C-terminus assumed) | dose dependent inhibitory effect | significant growth inhibition | might not be efficacious enough | significant PC-3 tumor growth retardation | significant tumor growth retardation | No significant anti-tumor effect | trend towards significance | 
2 | polypeptide 7-21: PSP94 derived synthetic polypeptide from the amino terminus end, SEQ ID NO: 4 (NEGVPGDSTRKCMDL; Polypeptide 7-21) |  | significant growth inhibition |  |  |  |  |  | also observed in the PC-3 nude mouse xenograft model
